Measured values as given in the supplement of paper PMC11208160.

Assay: recombinant UMI read abundance after kanamycin selection (control-corrected) (log10(CPM+1)); higher = more efficient recombination; extreme values may be limits of the assay; sequences stand for … in AGTGCAGAGAAAATCGGCCAGTTTTCTCTGCCTGCAGTCCGCATGCCGTGGGACCCCTTGGGTTCTAACCTGTTGCCTAGATTTATGCAGCGGACTGCCTTTCTCCCAAAGTGATAAACCGG…AGGTTGGTTTCACT; site = the 11-nt donor
Outline: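 Under IPTG (0.07 mM) plus kanamycin, or without selection, Escherichia coli carrying a UMI-tagged donor and donor-binding-loop pair library and a target plasmid for the IS621 bridge recombinase were plated in two replicates. Recombinant UMIs were PCR-amplified across the donor–target junction and sequenced. Counts were converted to CPM, averaged over replicates, scaled by control-derived factors and reported as log10(CPM+1).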
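Note: IS621 bridge recombinase in Escherichia coli cells against a fixed T5 target plasmid.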

Sequence	recombinant UMI read abundance (log10)
CAGTTAGCATGGACCGGTTTTCCCGGTAATCCGTATTTGTG (site CCGTTAGCTCA)	0.0219
CAGTTAGCATGGACCGGTTTTCCCGGTAATCCGTATTTGTG (site CGGTTAGCTCA)	0.347
CAGTTAGCATGGACCGGTTTTCCCGGTAATCCGTATTTGTG (site CTGTTAGCTCA)	0.364
CAGTTCCCATGGACCGGTTTTCCCGGTAATCCGTATTTGCT (site CAATTCCCTAG)	0.806
CAGTTCCCATGGACCGGTTTTCCCGGTAATCCGTATTTGCT (site CACTTCCCTAG)	0.644
CAGTTCCCATGGACCGGTTTTCCCGGTAATCCGTATTTGCT (site CAGTTCCCTAG)	0.863
CAGTTCCCATGGACCGGTTTTCCCGGTAATCCGTATTTGCT (site CATTTCCCTAG)	0.433
CAGTTGGCATGGACCGGTTTTCCCGGTAATCCGTATTTGGA (site CAATTGGCTTC)	0.882
CAGTTGGCATGGACCGGTTTTCCCGGTAATCCGTATTTGGA (site CACTTGGCTTC)	0.076
CAGTTGGCATGGACCGGTTTTCCCGGTAATCCGTATTTGGA (site CAGTTGGCTTC)	1.72
CAGTTGGCATGGACCGGTTTTCCCGGTAATCCGTATTTGGA (site CATTTGGCTTC)	0.00616
CATAATACATGGACCGGTTTTCCCGGTAATCCGTATTTGGC (site CATAATACTGC)	1.88
CATAATACATGGACCGGTTTTCCCGGTAATCCGTATTTGGC (site CCTAATACTGC)	0
CATAATACATGGACCGGTTTTCCCGGTAATCCGTATTTGGC (site CGTAATACTGC)	0
CATAATACATGGACCGGTTTTCCCGGTAATCCGTATTTGGC (site CTTAATACTGC)	0
CATAGCCCATGGACCGGTTTTCCCGGTAATCCGTATTTGAG (site CATAGCCCTCT)	0.0141
CATATTGCATGGACCGGTTTTCCCGGTAATCCGTATTTGCA (site CATATTGCTTG)	0
CATATTGCATGGACCGGTTTTCCCGGTAATCCGTATTTGTT (site CATATTGCTAA)	1.21
CATCACACATGGACCGGTTTTCCCGGTAATCCGTATTTGGT (site CATCACACTAC)	1.24

Sequence	recombinant UMI read abundance (log10)
CATCGAACATGGACCGGTTTTCCCGGTAATCCGTATTTGAT (site CATCGAACTAT)	0.616
CATCGAACATGGACCGGTTTTCCCGGTAATCCGTATTTGCT (site CATCGAACTAG)	2.31
CATCGGACATGGACCGGTTTTCCCGGTAATCCGTATTTGAA (site CATCGGACTTT)	1.53
CATCGGGCATGGACCGGTTTTCCCGGTAATCCGTATTTGCC (site CATCGGGCTGG)	1.31
CATCTTGCATGGACCGGTTTTCCCGGTAATCCGTATTTGCG (site CATCTTGCTCG)	0.00609
CATCTTTCATGGACCGGTTTTCCCGGTAATCCGTATTTGGT (site CATCTTTCTAC)	0.00559
CATGCGCCATGGACCGGTTTTCCCGGTAATCCGTATTTGTG (site CAAGCGCCTCA)	0.0274
CATGCGCCATGGACCGGTTTTCCCGGTAATCCGTATTTGTG (site CACGCGCCTCA)	0.0136
CATGCGCCATGGACCGGTTTTCCCGGTAATCCGTATTTGTG (site CAGGCGCCTCA)	0.025
CATGCGCCATGGACCGGTTTTCCCGGTAATCCGTATTTGTG (site CATGCGCCTCA)	0.0238
CATGGCCCATGGACCGGTTTTCCCGGTAATCCGTATTTGTT (site CAAGGCCCTAA)	0.0112
CATGGCCCATGGACCGGTTTTCCCGGTAATCCGTATTTGTT (site CACGGCCCTAA)	0.00402
CATGGCCCATGGACCGGTTTTCCCGGTAATCCGTATTTGTT (site CAGGGCCCTAA)	0.0418
CATGGCCCATGGACCGGTTTTCCCGGTAATCCGTATTTGTT (site CATGGCCCTAA)	0.00575
CATTAGCCATGGACCGGTTTTCCCGGTAATCCGTATTTGGA (site CATTAGCCTTC)	0.0164
CATTCCACATGGACCGGTTTTCCCGGTAATCCGTATTTGCA (site CATTCCACTTG)	1.95
CATTCGACATGGACCGGTTTTCCCGGTAATCCGTATTTGGG (site CAATCGACTCC)	0.0123
CATTCGACATGGACCGGTTTTCCCGGTAATCCGTATTTGGG (site CACTCGACTCC)	0.0107
CATTCGACATGGACCGGTTTTCCCGGTAATCCGTATTTGGG (site CAGTCGACTCC)	0.0114

Sequence	recombinant UMI read abundance (log10)
CATTCGACATGGACCGGTTTTCCCGGTAATCCGTATTTGGG (site CATTCGACTCC)	0.00677
CATTCTCCATGGACCGGTTTTCCCGGTAATCCGTATTTGAG (site CATTCTCCTCT)	0.0129
CATTGAACATGGACCGGTTTTCCCGGTAATCCGTATTTGTT (site CATTGAACTAA)	0.0984
CATTGCACATGGACCGGTTTTCCCGGTAATCCGTATTTGTT (site CATTGCACTAA)	0.487
CATTGCTCATGGACCGGTTTTCCCGGTAATCCGTATTTGAA (site CAATGCTCTTT)	0.335
CATTGCTCATGGACCGGTTTTCCCGGTAATCCGTATTTGAA (site CACTGCTCTTT)	0.00354
CATTGCTCATGGACCGGTTTTCCCGGTAATCCGTATTTGAA (site CAGTGCTCTTT)	0.351
CATTGCTCATGGACCGGTTTTCCCGGTAATCCGTATTTGAA (site CATTGCTCTTT)	1.05
CCAAATTCATGGACCGGTTTTCCCGGTAATCCGTATTTGTT (site CCAAATTCTAA)	0
CCAACCCCATGGACCGGTTTTCCCGGTAATCCGTATTTGCT (site CCAACCCCTAG)	0
CCAACGGCATGGACCGGTTTTCCCGGTAATCCGTATTTGCG (site CCAACGGCTCG)	1.52
CCAACTACATGGACCGGTTTTCCCGGTAATCCGTATTTGAC (site CCAACTACTGT)	0.998
CCAAGGGCATGGACCGGTTTTCCCGGTAATCCGTATTTGCT (site CCAAGGGCTAG)	0
CCACCAGCATGGACCGGTTTTCCCGGTAATCCGTATTTGTA (site CCACCAGCTTA)	1.17
CCACTAACATGGACCGGTTTTCCCGGTAATCCGTATTTGGA (site CAACTAACTTC)	0.0202
CCACTAACATGGACCGGTTTTCCCGGTAATCCGTATTTGGA (site CCACTAACTTC)	0.235
CCACTAACATGGACCGGTTTTCCCGGTAATCCGTATTTGGA (site CGACTAACTTC)	0.0202
CCACTAACATGGACCGGTTTTCCCGGTAATCCGTATTTGGA (site CTACTAACTTC)	0.0175
CCACTATCATGGACCGGTTTTCCCGGTAATCCGTATTTGAC (site CCACTATCTGT)	1.02
